± gives the expanded uncertainty stated by the source.
Assay: xn = mol fraction of the nth substance listed
Conditions: 101 kPa, Liquid

CCC(C)=O [butanone] + CCC(C)O
Conditions	mass density, 293.15 K [kg/m3]	mass density, 298.15 K [kg/m3]	mass density, 303.15 K [kg/m3]	mass density, 308.15 K [kg/m3]	mass density, 313.15 K [kg/m3]	viscosity, 293.15 K [mPa·s]	viscosity, 298.15 K [mPa·s]	viscosity, 303.15 K [mPa·s]	viscosity, 308.15 K [mPa·s]	viscosity, 313.15 K [mPa·s]
x1 = 0.0684	806.36 ± 1	802.16 ± 1	798.67 ± 1.1	793.88 ± 1.1	789.68 ± 1.1	2.91 ± 0.52	2.429 ± 0.44	2.037 ± 0.37	1.692 ± 0.32	1.499 ± 0.28
x1 = 0.1365	806.25 ± 1	801.98 ± 1	798.39 ± 1.1	793.58 ± 1.1	789.29 ± 1.1	2.34 ± 0.43	2.007 ± 0.37	1.649 ± 0.31	1.339 ± 0.26	1.228 ± 0.24
x1 = 0.2044	806.14 ± 1	801.79 ± 1	798.1 ± 1.1	793.28 ± 1.1	788.9 ± 1.2	1.87 ± 0.35	1.613 ± 0.3	1.352 ± 0.26	1.054 ± 0.21	1.003 ± 0.2
x1 = 0.2721	806.03 ± 1	801.61 ± 1	797.82 ± 1.1	792.98 ± 1.1	788.51 ± 1.2	1.491 ± 0.28	1.299 ± 0.25	1.074 ± 0.21	0.8161 ± 0.17	0.8187 ± 0.17
x1 = 0.3395	805.92 ± 1	801.43 ± 1	797.54 ± 1.1	792.68 ± 1.1	788.13 ± 1.2	1.183 ± 0.23	1.051 ± 0.21	0.8484 ± 0.17	0.6282 ± 0.13	0.6806 ± 0.14
x1 = 0.4066	805.81 ± 1	801.25 ± 1.1	797.26 ± 1.1	792.39 ± 1.1	787.74 ± 1.2	0.9558 ± 0.19	0.8537 ± 0.17	0.6826 ± 0.14	0.5076 ± 0.11	0.5709 ± 0.12
x1 = 0.4735	805.71 ± 1.1	801.07 ± 1.1	796.98 ± 1.1	792.09 ± 1.2	787.36 ± 1.2	0.7693 ± 0.16	0.687 ± 0.14	0.5613 ± 0.12	0.4126 ± 0.096	0.4786 ± 0.11
x1 = 0.5402	805.61 ± 1.1	800.9 ± 1.1	796.71 ± 1.1	791.8 ± 1.2	786.97 ± 1.2	0.6236 ± 0.13	0.56 ± 0.12	0.4526 ± 0.1	0.3601 ± 0.087	0.4206 ± 0.098
x1 = 0.6066	805.5 ± 1.1	800.72 ± 1.1	796.43 ± 1.1	791.51 ± 1.2	786.59 ± 1.2	0.5287 ± 0.12	0.48 ± 0.11	0.3944 ± 0.093	0.326 ± 0.081	0.3681 ± 0.088
x1 = 0.6727	805.4 ± 1.1	800.55 ± 1.1	796.16 ± 1.1	791.22 ± 1.2	786.21 ± 1.2	0.4645 ± 0.11	0.4282 ± 0.099	0.3468 ± 0.085	0.3051 ± 0.078	0.3429 ± 0.084
x1 = 0.7387	805.3 ± 1.1	800.38 ± 1.1	795.89 ± 1.1	790.93 ± 1.2	785.83 ± 1.2	0.4412 ± 0.1	0.3922 ± 0.093	0.3077 ± 0.078	0.309 ± 0.078	0.3191 ± 0.08
x1 = 0.8044	805.21 ± 1.1	800.1 ± 1.1	795.62 ± 1.1	790.64 ± 1.2	785.45 ± 1.2	0.4486 ± 0.1	0.362 ± 0.087	0.3031 ± 0.077	0.3112 ± 0.079	0.2915 ± 0.075
x1 = 0.8698	805.11 ± 1.1	800.04 ± 1.1	795.35 ± 1.1	790.35 ± 1.2	785.07 ± 1.2	0.4468 ± 0.1	0.3482 ± 0.085	0.3071 ± 0.078	0.3186 ± 0.08	0.2805 ± 0.073
x1 = 0.935	805.01 ± 1.1	799.87 ± 1.1	795.08 ± 1.1	790.06 ± 1.2	784.7 ± 1.2	0.42 ± 0.098	0.3 ± 0.077	0.2786 ± 0.073	0.2966 ± 0.076	0.2718 ± 0.072
x1 = 1	804.92 ± 1.1	799.7 ± 1.1	794.81 ± 1.1	789.78 ± 1.2	784.32 ± 1.2	0.3956 ± 0.093	0.2828 ± 0.074	0.2666 ± 0.071	0.2601 ± 0.07	0.2545 ± 0.069

From the NIST ThermoML archive (doi:10.1021/je800571y)
